The values below come from publication PMC5103075, “An immunostimulatory dual-functional nanocarrier that improves cancer immunochemotherapy” (Nature Communications, 2016).

Each structure is given as a SMILES string. Converted amounts (≈) assume the structure as drawn. Read-outs that look alike come from different tables or passages of the source.

One data set has as its system 4T1.2 cells. The data set is described as follows: MTT cytotoxicity in 4T1.2 cells. Type of data set: cell-based, mouse. As to conditions: 4T1.2, 72 h; for IC50: means±s.e.m. How it is done: (§1) 4T1.2 or PC3 cells at 2,000 cells/well were seeded in 96-well plates, respectively. […] After 3 days of incubation, 20 μl of 3-(4, 5-dimethylthiazol-2-yl)-2,5-diphenyltetrazoliumbromide (MTT) in DPBS (5 mg ml^−1) was added to each well and cells were further incubated for 2 h. Medium was removed and MTT formazan crystals were solubilized by 100 μl of DMSO per well. Absorbance of each well was measured with a microplate reader at wavelength of 550 nm. Untreated wells were used as controls. Cell viability was calculated as ((ODtreated−ODblank)/(ODcontrol−ODblank) × 100%).

The test system of the next data set is PC3 cells. The data set is described as follows: MTT cytotoxicity in PC3 cells. The data set is classed as cell-based. As to conditions: Homo sapiens, PC-3, PC3, 72 h, means±s.e.m. How it is done:
as §1

On to `COc1cccc2c1C(=O)c1c(O)c3c(c(O)c1C2=O)C[C@@](O)(C(=O)CO)C[C@@H]3O[C@H]1C[C@H](N)[C@H](O)[C@H](C)O1` [DOX, doxorubicin], for which the IC50 in the data set on 4T1.2 cells is 0.2686 ± 0.02728 µg/mL (≈ 0.494 µM).

In the case of `CC(=O)O[C@H]1C(=O)[C@@]2(C)[C@H]([C@H](OC(=O)c3ccccc3)[C@]3(O)C[C@H](OC(=O)[C@H](O)[C@@H](NC(=O)c4ccccc4)c4ccccc4)C(C)=C1C3(C)C)[C@]1(OC(C)=O)CO[C@@H]1C[C@@H]2O` [PTX, Paclitaxel], the “Cytotoxicity (tumour cell growth inhibition)” value with 4T1.2 cells (Fig. 3d) is given as “inhibited the tumour cell growth in a concentration-dependent manner”. For the same molecule, the 50% inhibitory concentration (IC50) was 0.245 ± 0.0211 µg/mL (≈ 0.286 µM) with 4T1.2 cells (Mus musculus, read-out: IC50) and 0.101 ± 0.0112 µg/mL (≈ 0.119 µM) with PC3 cells.
